Laboratory results published in patent US20260042764A1, “COMPOSITIONS AND METHODS FOR INHIBITION OF KRAS” (TheRas, Inc., priority 2022, published 2026).

Tests used:
[1] = target: T1, Avi-KRAS WT (1-169) GppNHp/RAF1 RBD-3xFLAG (52-151) (Homo sapiens, UniProt P01116); experiment: Raf1-KRAS WT-GppNHP disruption HTRF assay (Biological Example 1); format: binding; conditions: KRAS WT, GppNHp-loaded
T1 construct: Avi-KRAS WT (1-169)
Outline: (§1)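 Protein mix, 1 h RT, 700 rpm; reagent mix, 1 h RT, 700 rpm; HTRF read. Buffer Tris pH 7.5/NaCl/MgCl2/BSA/Tween, 10% DMSO. Output % activity, DMSO = 100%.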

SW620 cells (KRAS G12V) = experiment: Cell-based pERK HTRF assay in SW620 cell (Biological Example 4); conditions: Homo sapiens, SW-620, SW620 (KRAS G12V) cells
Outline: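 SW620 seeded in RPMI/10% FBS, next day dosed 4 h (top 1 μM, half-log, 9 pts, 0.25% DMSO). Lysed, pERK by d2/Eu cryptate HTRF, 4–24 h RT, 615 nm read.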

[2] = target: T2, Avi-KRAS G12V (2-169) GTP/RAF1 RBD-3xFLAG (51-131) (Homo sapiens, UniProt P01116, G12V); experiment: Raf1-KRAS G12V-GTP disruption HTRF assay (Biological Example 3); format: binding; conditions: KRAS G12V, GTP-loaded
T2 construct: Avi-KRAS G12V (2-169)
Outline: (§2)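 Compounds were titrated 10-point, 3-fold from 30 μM against preformed KRAS-GTP:RAF1 RBD (51-131) complexes at 50 nM, using KRAS 2-169 as WT, G12C, G12D or G12V. After 1 h at room temperature in Tris pH 7.5 buffer with MgCl2 and 10% DMSO, time-resolved fluorescence was read. Results are percent activity versus DMSO.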

[3] = target: T3, Avi-KRAS G12V (1-169) GppNHp/RAF1 RBD-3xFLAG (52-151) (Homo sapiens, UniProt P01116, G12V); experiment: Raf1-KRAS G12V-GppNHP disruption HTRF assay (Biological Example 1); format: binding; conditions: KRAS G12V, GppNHp-loaded
T3 construct: Avi-KRAS G12V (1-169)
Outline: as §1

[4] = target: T4, Avi-KRAS G12D (2-169) GTP/RAF1 RBD-3xFLAG (51-131) (Homo sapiens, UniProt P01116, G12D); experiment: Raf1-KRAS G12D-GTP disruption HTRF assay (Biological Example 3); format: binding; conditions: KRAS G12D, GTP-loaded
T4 construct: Avi-KRAS G12D (2-169)
Outline: as §2

T1 sequence (P01116 1-169 isoform P01116-2): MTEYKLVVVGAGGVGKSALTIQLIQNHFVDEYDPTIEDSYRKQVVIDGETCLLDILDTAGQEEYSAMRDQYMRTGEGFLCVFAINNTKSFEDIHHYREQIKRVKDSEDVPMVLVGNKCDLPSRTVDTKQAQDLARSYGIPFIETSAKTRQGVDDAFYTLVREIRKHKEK
T2 sequence (P01116 2-169 isoform P01116-2 G12V): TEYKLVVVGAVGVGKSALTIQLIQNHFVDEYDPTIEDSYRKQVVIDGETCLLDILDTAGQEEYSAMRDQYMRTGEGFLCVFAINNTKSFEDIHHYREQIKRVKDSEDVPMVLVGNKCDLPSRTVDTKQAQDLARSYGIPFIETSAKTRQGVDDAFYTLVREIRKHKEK
T4 sequence (P01116 2-169 isoform P01116-2 G12D): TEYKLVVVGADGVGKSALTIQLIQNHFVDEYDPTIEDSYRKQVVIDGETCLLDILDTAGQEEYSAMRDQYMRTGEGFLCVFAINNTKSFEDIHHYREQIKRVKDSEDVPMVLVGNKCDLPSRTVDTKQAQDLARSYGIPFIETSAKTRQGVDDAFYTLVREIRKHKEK
T3 sequence (P01116 1-169 isoform P01116-2 G12V): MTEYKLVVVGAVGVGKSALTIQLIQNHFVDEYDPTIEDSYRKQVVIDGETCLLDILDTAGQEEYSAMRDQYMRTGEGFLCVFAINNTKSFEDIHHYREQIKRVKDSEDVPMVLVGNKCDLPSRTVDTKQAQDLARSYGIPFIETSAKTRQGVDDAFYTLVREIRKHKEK

IC50 ([1]; Table 11) [nM] | IC50 (SW620 cells (KRAS G12V)) [nM] | IC50 (SW620 cells (KRAS G12V); pERK HTRF) [nM] | IC50 [2] [nM] | IC50 ([3]; Table 11) [nM] | IC50 [4] [nM] | IC50 ([1]; class symbols) [nM] | IC50 (SW620 cells (KRAS G12V); pERK HTRF, class symbols) [nM] | IC50 ([3]; class symbols) [nM] | SMILES
100 to 1000 | < 100 | 100 to 1000 | 1000 to 10000 | 100 to 1000 | 100 to 1000 |  |  |  | N#Cc1c(N)sc2c(F)ccc(-c3c(C(F)(F)F)cc4c(N5C[C@H]6C[C@@H]5CO6)nc(OC[C@@]56CCCN5C[C@H](F)C6)nc4c3F)c12 [Compound 253, 2-amino-7-fluoro-4-[8-fluoro-2-[[(2R,8S)-2-fluoro-1,2,3,5,6,7-hexahydropyrrolizin-8-yl]methoxy]-4-[(1R,4R)-2-oxa-5-azabicyclo[2.2.1]heptan-5-yl]-6-(trifluoromethyl)quinazolin-7-yl]benzothiophene-3-carbonitrile]
< 100 | < 100 | < 100 | 100 to 1000 | 100 to 1000 | 100 to 1000 |  |  |  | N#Cc1c(N)sc2c(F)ccc(-c3c(C(F)(F)F)cc4c(N5CCNS(=O)(=O)CC5)nc(OC[C@@]56CCCN5C[C@H](F)C6)nc4c3F)c12 [Compound 245]
 | < 100 |  | ≤ 100 |  | ≤ 100 | < 100 | < 100 | < 100 | CCN(c1nc(OC[C@@]23CCCN2C[C@H](F)C3)nc2c(F)c(-c3ccc(F)c4sc(N)c(C#N)c34)c(C(F)(F)F)cc12)[C@H]1CC(=O)N(C2CC2)C1 (atropisomer, axis not shown) [Compound 615]
 | 100 to 1000 |  | ≤ 100 |  | ≤ 100 | < 100 | < 100 | < 100 | C/C=C/C(=O)N1CC[C@H](N(CC)c2nc(OC[C@@]34CCCN3C[C@H](F)C4)nc3c(F)c(-c4ccc(F)c5sc(N)c(C#N)c45)c(C(F)(F)F)cc23)C1 (atropisomer, axis not shown) [Compound 674]
